Data reported in patent US11242343B2 (Incyte Corporation, priority 2016, dated 2022).

Molecular target: HPK1 (Homo sapiens, UniProt Q92918)
Experiment: HPK1 Kinase Binding Assay
Settings: LanthaScreen tracer 222 binding, one hour incubation at 25° C.
Experimental: Example A. HPK1 Kinase Binding Assay
A stock solution of 1 mM test compound was prepared in DMSO. The compound plate was prepared by 3-fold and 11-point serial dilutions. 0.1 μL of the compound in DMSO was transferred from the compound plate to the white 384 well polystyrene plates. The assay buffer contained 50 mM HEPES, pH 7.5, 0.01% Tween-20, 5 mM MgCl2, 0.01% BSA, and 5 mM DTT. 5 μl of 4 nM active HPK1 (SignalChem M23-11G) prepared in the buffer was added to the plate. The enzyme concentration given was based on the given stock concentration reported by the vender. 5 μl of 18 nM tracer 222 (ThermoFisher PV6121) and 4 nM LanthaScreen Eu-Anti GST antibody (ThermoFisher PV5595) were added. After one hour incubation at 25° C., the plates were read on a PHERAstar FS plate reader (BMG Labtech). Ki values were determined.

Sequence of HPK1 (Q92918 whole entry, looked up): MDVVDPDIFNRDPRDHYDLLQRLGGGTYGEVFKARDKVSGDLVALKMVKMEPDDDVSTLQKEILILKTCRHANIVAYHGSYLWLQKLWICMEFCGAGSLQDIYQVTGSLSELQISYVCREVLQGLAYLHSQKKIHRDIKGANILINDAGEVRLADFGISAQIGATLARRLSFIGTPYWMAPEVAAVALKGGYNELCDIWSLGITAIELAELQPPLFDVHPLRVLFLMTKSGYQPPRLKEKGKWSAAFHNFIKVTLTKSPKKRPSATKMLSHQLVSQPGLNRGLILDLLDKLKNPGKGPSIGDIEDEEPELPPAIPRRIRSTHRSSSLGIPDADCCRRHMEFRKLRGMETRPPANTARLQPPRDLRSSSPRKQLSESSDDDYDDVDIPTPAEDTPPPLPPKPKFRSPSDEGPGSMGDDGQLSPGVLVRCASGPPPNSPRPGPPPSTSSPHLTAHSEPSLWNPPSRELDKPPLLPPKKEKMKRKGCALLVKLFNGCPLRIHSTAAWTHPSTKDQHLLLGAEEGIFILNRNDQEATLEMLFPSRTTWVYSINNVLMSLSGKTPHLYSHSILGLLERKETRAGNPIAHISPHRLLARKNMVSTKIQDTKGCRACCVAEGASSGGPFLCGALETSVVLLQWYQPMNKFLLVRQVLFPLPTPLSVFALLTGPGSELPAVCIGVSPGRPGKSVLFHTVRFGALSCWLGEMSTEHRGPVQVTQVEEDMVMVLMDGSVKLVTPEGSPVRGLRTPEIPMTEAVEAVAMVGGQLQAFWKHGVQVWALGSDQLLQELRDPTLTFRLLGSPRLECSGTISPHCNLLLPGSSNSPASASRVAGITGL

Compound	Ki [nM]
CNC(=O)c1cccc(-c2ccc3[nH]nc(-c4ccc(N5CCN(C)CC5)cc4)c3n2)c1F [Example 41, 2-Fluoro-N-methyl-3-(3-(4-(4-methylpiperazin-1-yl)phenyl)-1H-pyrazolo[4,3-b]pyridin-5-yl)benzamide]	≤ 100
CNCc1cc(C)c(-c2nc3c(-c4cnc(N5CCOCC5)nc4)n[nH]c3cc2C#N)c(F)c1 [Example 70, 5-(2-Fluoro-6-methyl-4-((methylamino)methyl)phenyl)-3-(2-morpholinopyrimidin-5-yl)-1H-pyrazolo[4,3-b]pyridine-6-carbonitrile]	≤ 100
CN1CCN(c2ccc(-c3n[nH]c4ccc(-c5cnc6nccnc6c5)nc34)cc2)CC1 [Example 32, 7-(3-(4-(4-methylpiperazin-1-yl)phenyl)-1H-pyrazolo[4,3-b]pyridin-5-yl)pyrido[3,2-b]pyrazine]	≤ 100
Cc1cccc(F)c1-c1nc2c(-c3ccc(N4CCN(C)CC4)nc3)n[nH]c2cc1C#N [Example 62]	≤ 100
COc1ccc(F)c(F)c1-c1ccc2[nH]nc(-c3ccc(N4CCN(C)CC4)cc3)c2n1 [Example 10, 5-(2,3-Difluoro-6-methoxyphenyl)-3-(4-(4-methylpiperazin-1-yl)phenyl)-1H-pyrazolo[4,3-b]pyridine]	≤ 100
Cc1ccccc1-c1ccc2[nH]nc(-c3ccc(N4CCN(C)CC4)cc3)c2n1 [Example 3]	≤ 100
CN1CCN(c2ccc(-c3n[nH]c4ccc(-c5cncc(-c6ncco6)c5)nc34)cc2)CC1 [Example 29, 2-(5-(3-(4-(4-Methylpiperazin-1-yl)phenyl)-1H-pyrazolo[4,3-b]pyridin-5-yl)pyridin-3-yl)oxazole]	≤ 100
CN1CCN(c2ccc(-c3n[nH]c4ccc(-c5ccccc5F)nc34)cc2)CC1 [Example 4, 5-(2-Fluorophenyl)-3-(4-(4-methylpiperazin-1-yl)phenyl)-1H-pyrazolo[4,3-b]pyridine]	≤ 100
CNCc1cc(C)c(-c2nc3c(-c4cnn(C)c4)n[nH]c3cc2C#N)c(F)c1 [Example 66, 5-(2-Fluoro-6-methyl-4-((methylamino)methyl)phenyl)-3-(1-methyl-1H-pyrazol-4-yl)-1H-pyrazolo[4,3-b]pyridine-6-carbonitrile]	≤ 100
CN1CCN(c2ccc(-c3n[nH]c4ccc(-c5cnn6ccccc56)nc34)cc2)CC1 [Example 35, 3-(4-(4-Methylpiperazin-1-yl)phenyl)-5-(pyrazolo[1,5-a]pyridin-3-yl)-1H-pyrazolo[4,3-b]pyridine]	≤ 100
CN1CCN(c2ccc(-c3n[nH]c4ccc(-c5cnc6c(c5)CC(=O)N6)nc34)cc2)CC1 [Example 27, 5-(3-(4-(4-Methylpiperazin-1-yl)phenyl)-1H-pyrazolo[4,3-b]pyridin-5-yl)-1H-pyrrolo[2,3-b]pyridin-2(3H)-one]	≤ 100
Cc1cccc(F)c1-c1nc2c(-c3cnn(C)c3)n[nH]c2cc1C#N [Example 77]	≤ 100
CCN1CCN(c2ccc(-c3n[nH]c4cc(C#N)c(-c5c(C)cc(CNC)cc5F)nc34)cc2)CC1 [Example 69, 3-(4-(4-Ethylpiperazin-1-yl)phenyl)-5-(2-fluoro-6-methyl-4-((methylamino)methyl)phenyl)-1H-pyrazolo[4,3-b]pyridine-6-carbonitrile]	≤ 100
CN1CCN(c2ccc(-c3n[nH]c4ccc(-c5cnc6cnn(C)c6c5)nc34)cc2)CC1 [Example 28, 1′-Methyl-3-(4-(4-methylpiperazin-1-yl)phenyl)-1H,1′H-5,6′-bipyrazolo[4,3-b]pyridine]	≤ 100
CN1CCN(c2ccc(-c3n[nH]c4ccc(-c5c(F)cccc5CO)nc34)cc2)CC1 [Example 11, (3-Fluoro-2-(3-(4-(4-methylpiperazin-1-yl)phenyl)-1H-pyrazolo[4,3-b]pyridin-5-yl)phenyl)methanol]	≤ 100
Cc1cccc(F)c1-c1nc2c(-c3cnc(N4CCOCC4)nc3)n[nH]c2cc1C#N [Example 63, 5-(2-Fluoro-6-methylphenyl)-3-(2-morpholinopyrimidin-5-yl)-1H-pyrazolo[4,3-b]pyridine-6-carbonitrile]	≤ 100
